We go through two compounds from patent publication US6184254A, “Methods of identifying modulators of perivascular sensory nerve Ca2+ receptors” (priority 1998, dated 2001).

In assay [1] the test system is intracellular Ca^2+ of mesenteric resistance arteries. Put plainly: Intracellular Ca2+ (fura-based) of mesenteric resistance arteries. More on the design: species or system Wistar rat. As to conditions: 1.6 and 2.5 mmol/L Ca2+. Here is the method: (§1) Mesenteric resistance arteries were isolated from Wistar rats; and intracellular Ca^2+ and isometric force were measured using a fura-based method and w ire myography (Bian, et aL, 1995b). Vessels were depleted of releasable Ca^2+ by repeated contraction with norepinephrine; and extracellular Ca^2+ was then cumulatively added back from 0.025-2.5 mmol/L in the presence of a n agonist. […] It was concluded that extracellular Ca^2+ limits force generation by depressing myofilament Ca^2+ sensitivity and decreasing intracellular Ca^2+ secondary to activation of a Ca^2+ -sensitive K^+ channel.

In the next assay the test system is cremaster arterioles. As to conditions: Ca2+ 0 to 5.1 mM; cited from earlier work.
The test system of assay [2] is mesenteric resistance arteries. As to conditions: cited from earlier work.
The subject of assay [3] is mesenteric resistance arteries. Put plainly: Ca2+-induced relaxation of isolated mesenteric resistance arteries (wire myograph). More on the design: species or system rat. The source says: Branch I and II mesenteric resistance arteries, internal diameter […], are isolated from the mesenteric arcade of male Wistar rats and placed in ice cold physiologic salt solution (PSS) of the following composition in mM: NaCl, 130-140; KCl, 4.7; MgSO4.7H2 O, 1.17; NaHCO3, 5-15; KH2 PO4, 1.15 and Na2 HPO4, 1.10, CaCl2, 1.0; HEPES, 50; and glucose, 5, with a pH of 7.4 when gassed with 95% air, 5% CO2.
After cleaning of fat and connective tissue, the arterial segments are denuded of endothelium by rubbing a human hair in and out of the lumen. The vessel segments are then mounted between a force transducer and translation stage of a wire myograph using tungsten wire and the PSS is warmed to 37° C. and gassed with 95% air, 5% CO2 to provide a pH of 7.4. The vessel segments are then stretched to a length which is equivalent to an internal diameter of […] and allowed to equilibrate for 30 minutes. […]
Mesenteric resistance artery segments are isolated from sham treated and denervated rats and prepared for measurement of isometric force generation using the wire myograph system. […] For each vessel, the maximal level of relaxation is recorded and used for comparisons. At the end of the protocol, the ability of the vessel to relax in response to addition of sodium nitroprusside (SNP) is assessed to determine the ability to relax in response to a non-neural stimulus. […]

The next assay has as its system aorta. Conditions: high extracellular Ca2+; cited from earlier work.
Assay [4] deals with blood pressure. Conditions: cited from earlier work.
For assay [5], the system named is mesenteric resistance arteries. Put plainly: Isometric force/active stress of Ca2+-depleted mesenteric resistance arteries. More on the design: species or system Wistar rat. Here is the method:
In the course of studies designed to examine the hypothesis that the Ca^2+ force relationship of resistance arteries is altered in genetically hypertensive rats, it was discovered that physiologic concentrations of extracellular Ca^2+ affected the repeated contraction elicited by norepinephrine in Ca^2+ -free medium.
as §1

Assay [6] concerns mesenteric resistance arteries of SHR and WKY. The assay is described as follows: Response to norepinephrine of SHR and WKY mesenteric resistance arteries at different extracellular Ca2+. Conditions: 1.5 and 2.5 vs 1.25 mmol/L Ca2+, both strains. More on the design: species or system rat (SHR and WKY). The procedure: In an initial series of experiments the isometric force response of mesenteric resistance arteries of SHR and WKY was assessed to cumulative addition of norepinephrine in the presence of 1.25, 1.5 and 2.5 mmol/L extracellular Ca^2+ (Li, J., et al., 1993).

In assay [7] the test system is renal artery segment pre-contracted with norepinephrine. Put plainly: Superfusion bioassay with renal artery segment. More on the design: species or system rat. From the text:
The renal artery used as the bioassay segment was isolated and mounted between a fixed support and a force transducer and the lack of response to addition of Ca^2+ was verified (FIG. 9A). The bioassay segment was then superfused with PSS that was allowed to drip across a mesenteric arcade attached to PE-10 tubing; the cut ends of the arcade were tied with suture material to prevent egress of endothelium-derived factors. […] To further examine the possibility that a diffusible substance was released from the mesenteric arcade in response to 5 mM Ca^2+, the superfusate was collected and stored on ice for approximately 45 minutes. The bioassay segment was then returned to the organ chamber, recontracted with norepinephrine and the response to Ca^2+ and to the collected superfusate were assessed.

The test system of the next assay is rat aorta. As to conditions: cited from earlier work.
The test system of a further assay is rat tail arteries. Conditions: raising Ca2+ from 4.1 to 20.1 mmol/L; cited from earlier work.
A further assay concerns mammalian arteries. Conditions: slightly supraphysiologic concentrations; cited from earlier work.
Assay [8] deals with blood pressure. As to conditions: SHR; cited from earlier work.
The next assay has as its system perivascular CaR. Put plainly: Perivascular CaR expression after capsaicin-induced denervation. Format: in vivo, rat. Conditions: KK3 antiserum. The procedure: Pregnant rats are received at 15 days gestation and pups are delivered in a vivarium. On the first and second days of life, each pup is lightly anesthetized with halothane and given s.c. injection of capsaicin (50 mg/kg) or vehicle. The rats are then kept until 7-9 weeks of age at which time they are euthanized and tissue isolated. Sub-acute regional nerve destruction is performed. […] The would is closed and the rats are allowed to recover for three days following which branches leading from the treated vessel segments are harvested for study. For each procedure, two methods are used to verify denervation of the arteries. […]
The effect of sensory denervation on perivascular nerve CaR expression is assessed using western blot analysis. […] The membranes are then stained with monoclonal anti-parathyroid CaR (1:7500) and anti-smooth muscle α-actin, then visualized using the enhanced chemiluminescence, and quantified using laser densitometry. The relative expression of CaR in each sample is then assessed as the ratio of the density of CaR staining; α-actin staining. […]
The results have been presented (Mupanomunda et al., 1997). Additional studies quantify the effect of capsaicin-induced denervation on CaR content using western blot analysis.

The test system of assay [9] is CGRP nerve fiber density of mesenteric resistance arteries. The assay is described as follows: CGRP nerve staining/density after capsaicin-induced sensory denervation. Format: in vivo, rat. The procedure:
Pregnant rats are received at 15 days gestation and pups are delivered in a vivarium. On the first and second days of life, each pup is lightly anesthetized with halothane and given s.c. injection of capsaicin (50 mg/kg) or vehicle. The rats are then kept until 7-9 weeks of age at which time they are euthanized and tissue isolated. Sub-acute regional nerve destruction is performed. […] The would is closed and the rats are allowed to recover for three days following which branches leading from the treated vessel segments are harvested for study. For each procedure, two methods are used to verify denervation of the arteries. One is a functional assay in which arteries isolated from sham or denervated rats are electrically stimulated under conditions that selectively activate perivascular sensory dilator nerves; the second is an immunocytochemical approach.
At 8 weeks of age the rats were killed and whole mount preparations of mesenteric resistance arteries were prepared, stained with polyclonal anti-calcitonin gene related peptide (CGRP), which is the primary sensory nerve transmitter, and quantified using stereomorphologic methods (Schmidt-Schoenbein et al., 1977).

Assay [10] relates to Ca^2+-induced relaxation of mesenteric resistance arteries. Put plainly: Inhibition of Ca2+-induced relaxation of mesenteric resistance arteries by antagonists or denervation. More on the design: species or system rat.
Another assay relates to neurogenic inflammation. As to conditions: denervation and desensitization by treatment with capsaicin; cited from earlier work.

Each structure is given as a SMILES string. “Also recorded” adds a separate entry of the source.

Regarding `[Ca+2]` [Ca^2+], in [1], the “steady state intracellular Ca2+” value is given as “only decreased significantly in response to 2.5 mmol/L extracellular Ca^2+”. Besides, in the assay on cremaster arterioles, the “effect on cremaster arterioles” value is given as “graded contraction”. For the same compound, the EC50 in assay [2] (cumulatively raising extracellular Ca2+ above 1.5 mM, n=12, read-out: ED50 value of Ca2+-induced relaxation) is 2400 ± 170 µM. Besides, the extent of relaxation result in assay [2] (raising extracellular Ca2+ above 1.5 mM) is on record as “nearly complete relaxation”. The “effect on isolated arteries” value in assay [2] (raising extracellular Ca2+ from 1.0 mM to 1.5 mM) is “relaxes isolated arteries”. The “relationship of 3 mM Ca2+-induced relaxation with CaR content” value in assay [3] (5 μM norepinephrine) is listed as “positively correlated”. The “relaxation response of precontracted artery to Ca2+” value in assay [3] (1.5, 2, 3, 5, 7.5 and 10 mmol/L) is “biphasic relaxation response”. Besides, the “effect on early force response of the aorta to epinephrine” value with aorta is reported as “suppress the early force response”. Besides, the “effect on later steady state response of the aorta” value with aorta is recorded as “enhanced”. In addition, the “blood pressure lowering effect of Ca2+ supplementation” value in the assay on blood pressure [4] (clinical trials, overall) is reported as “small overall blood pressure lowering effect”. Besides, the “blood pressure response to Ca2+ supplementation in sub-groups” value with blood pressure [4] (sub-groups) is given as “significant fall in blood pressure”. In addition, the effect on force entry in assay [5] (Ca2+ between 0.01 and 0.8 mmol/L) is “increase in force”; in assay [5] (raising Ca2+ from 0.8 to 1.6 or 1.6 to 2.5 mmol/L) it was “caused relaxation; also recorded: decrease in force and Ca^2+”. Also, in assay [5] (Ca2+ from 0.8 to 1.6, FIG. 2), the “steady state force and Ca2+ in” value is “decreased steady state force but not steady state Ca^2+in”. In [5] (norepinephrine, serotonin and PGF2α contraction, not K+, 0.8 to 1.6 and 1.6 to 2.5 mmol/L), the “effect on active stress” value is recorded as “decreased active stress”. For the same compound, the “response to low dose norepinephrine” value in [6] is on record as “significantly depressed”. Also, the “effect on renal artery bioassay segment when superfused over the donor segment” value in assay [7] (5 mM Ca2+) is recorded as “caused relaxation”. Besides, the “direct effect on bioassay (renal artery) vessel” value in assay [7] (5 mM Ca2+ added directly) is on record as “without effect; also recorded: absence of response”. The “direct effect on renal artery vessel after recontraction” value in assay [7] (Ca2+ 1.5-5.0 mM) is “no effect”. In addition, the “effect of extracellular Ca2+ on K+-induced contraction” value with rat aorta is “depressed”. The “effect on rat tail arteries” value in the assay on rat tail arteries is given as “relaxes rat tail arteries”. In addition, in the assay with mammalian arteries, the “effect on force generation” value is given as “depress force generation”. The “effect of elevated dietary calcium intake on blood pressure” value in the assay with blood pressure [8] is recorded as “lowers blood pressure”.
Turning to `COc1cc(CNC(=O)CCCC/C=C/C(C)C)ccc1O` [capsaicin], in the assay with perivascular CaR, the “effect on staining for perivascular CaR” value is recorded as “significantly decreases”. Further, in assay [9] (capsaicin denervation), the “effect on staining for CGRP” value is “significantly decreases”. Further, in [9] (neonatal capsaicin (50 mg/kg s.c.), 8 weeks of age), the “reduction in CGRP nerve fiber density” value was found to be 40%. Moreover, the “effect on Ca2+-induced relaxation” value in assay [10] (20 minutes pre-treatment, 10 μM capsaicin) is “inhibited/reversed”; in assay [10] (chronic capsaicin-induced sensory denervation) it was “attenuates; also recorded: significantly attenuated”. Also, the “effect of treatment on neurogenic inflammation” value in the assay on neurogenic inflammation is recorded as “prevented”.
